Measurements taken from the supplement of paper PMC11451515.

Columns and labels:
Conditions in all cases: 48 h
NOMO1 [1] = test: AUC of viability dose-response curve (% viability x log10 dose units); higher = less sensitive
Summary of the method: (§1)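 Library compounds in DMSO were applied for 48 h at 37°C at 11 threefold doses (47 μM to 0.79 nM) to medium-adapted leukemia cells in 1536-well plates holding 500 or 1000 cells/well. Luminescence from CellTiter-Glo One was normalised plate by plate against DMSO and cell-free wells. Area under the curve came from trapezoidal integration of a log-logistic fit, after scaling curves that rose above full viability and discarding those that failed quality control. The fit had four parameters and used log10 doses.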

P12-Ichikawa [2] = test: as above
Summary of the method: as §1

SEM cells [3] = test: cell viability relative to DMSO control; higher = less cytotoxic
Summary of the method: (§2)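 Library compounds in DMSO were pin-dosed in an 11-point threefold series (47 μM to 0.79 nM) onto leukemia cells in 1536-well plates (5 μl). Plates held 500 cells/well of NOMO1 or SEM or 1000 cells/well of P12-Ichikawa, each adapted for at least four passages in each medium. Luminescence was read with CellTiter-Glo One after 48 h at 37°C. Viability means the per-plate percentage relative to DMSO wells, using cell-free wells as background.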

NOMO1 [4] = test: as above
Summary of the method: as §2

P12-Ichikawa [5] = test: as above
Summary of the method: as §2

SEM cells [6] = test: AUC of viability dose-response curve (% viability x log10 dose units); higher = less sensitive
Summary of the method: as §1

CC(=O)N(O)CCCCCNC(=O)CCC(=O)N(O)CCCCCNC(=O)CCC(=O)N(O)CCCCCN.C[S+](=O)([O-])O
AUC of viability dose-response curve
Conditions | HPLM + 10% dialyzed FBS | RPMI 5 mM glucose + 10% FBS | RPMI 5 mM glucose + 10% dialyzed FBS
NOMO1 [1] | 204 | 199 | 261
P12-Ichikawa [2] | 115 | 225 | 249

cell viability [%]
Conditions | NOMO1 [4] | P12-Ichikawa [5] | SEM cells [3]
HPLM + 10% dialyzed FBS, 0.000781 µM | 90.9 | 93.5 | 74.3
HPLM + 10% dialyzed FBS, 0.00234 µM | 83.7 | 76.5 | 86.8
HPLM + 10% dialyzed FBS, 0.00702 µM | 81.8 | 40.7 | 77.7
HPLM + 10% dialyzed FBS, 0.0211 µM | 32.6 | 10.3 | 26.2
HPLM + 10% dialyzed FBS, 0.0632 µM | 34 | 11 | 25.3
HPLM + 10% dialyzed FBS, 0.19 µM | 34.6 | 11.2 | 18.8
HPLM + 10% dialyzed FBS, 0.569 µM | 28.3 | 10.8 | 22.5
HPLM + 10% dialyzed FBS, 1.71 µM | 27.2 | 9.88 | 18.2
HPLM + 10% dialyzed FBS, 5.12 µM | 27.7 | 9.31 | 23.9
HPLM + 10% dialyzed FBS, 15.4 µM | 23.6 | 9.06 | 23.2
HPLM + 10% dialyzed FBS, 46.1 µM | 21.5 | 9.61 | 23.2
RPMI 5 mM glucose + 10% FBS, 0.000781 µM | 88.8 | 98.4 | 96.8
RPMI 5 mM glucose + 10% FBS, 0.00234 µM | 97.4 | 110 | 54.4
RPMI 5 mM glucose + 10% FBS, 0.00702 µM | 115 | 99 | 30.4
RPMI 5 mM glucose + 10% FBS, 0.0211 µM | 45.7 | 99 | 18.5
RPMI 5 mM glucose + 10% FBS, 0.0632 µM | 28.1 | 54.9 | 20.6
RPMI 5 mM glucose + 10% FBS, 0.19 µM | 17.6 | 13.4 | 20.9
RPMI 5 mM glucose + 10% FBS, 0.569 µM | 24.9 | 13.2 | 20.6
RPMI 5 mM glucose + 10% FBS, 1.71 µM | 20.9 | 11.6 | 14.4
RPMI 5 mM glucose + 10% FBS, 5.12 µM | 16.4 | 16.4 | 18.5
RPMI 5 mM glucose + 10% FBS, 15.4 µM | 10.6 | 11.4 | 15.9
RPMI 5 mM glucose + 10% FBS, 46.1 µM | 12.5 | 12.3 | 16.3
RPMI 5 mM glucose + 10% dialyzed FBS, 0.000781 µM | 86 | 97.8 | 81
RPMI 5 mM glucose + 10% dialyzed FBS, 0.00234 µM | 105 | 108 | 82.9
RPMI 5 mM glucose + 10% dialyzed FBS, 0.00702 µM | 113 | 114 | 94.4
RPMI 5 mM glucose + 10% dialyzed FBS, 0.0211 µM | 106 | 99.2 | 30.2
RPMI 5 mM glucose + 10% dialyzed FBS, 0.0632 µM | 79.1 | 79.9 | 25.4
RPMI 5 mM glucose + 10% dialyzed FBS, 0.19 µM | 26.3 | 18.4 | 19.3
RPMI 5 mM glucose + 10% dialyzed FBS, 0.569 µM | 26.4 | 20.7 | 18.7
RPMI 5 mM glucose + 10% dialyzed FBS, 1.71 µM | 21.4 | 16.7 | 20.2
RPMI 5 mM glucose + 10% dialyzed FBS, 5.12 µM | 23.8 | 15.2 | 19.3
RPMI 5 mM glucose + 10% dialyzed FBS, 15.4 µM | 18.2 | 16.1 | 23.6
RPMI 5 mM glucose + 10% dialyzed FBS, 46.1 µM | 17.4 | 22 | 23.7

CCc1cnn2c(NCc3ccc[n+]([O-])c3)cc(N3CCCC[C@H]3CCO)nc12
AUC of viability dose-response curve
Conditions | NOMO1 [1] | P12-Ichikawa [2] | SEM cells [6]
HPLM + 10% dialyzed FBS | 224 | 236 | 206
RPMI 5 mM glucose + 10% FBS | 231 | 230 | 193
RPMI 5 mM glucose + 10% dialyzed FBS | 223 | 234 | 198

CC(C)CC(=O)Nc1n[nH]c2c1CN(C(=O)C1CCN(C)CC1)C2(C)C
AUC of viability dose-response curve
Conditions | NOMO1 [1] | P12-Ichikawa [2] | SEM cells [6]
HPLM + 10% dialyzed FBS | 331 | 311 | 320
RPMI 5 mM glucose + 10% FBS | 370 | 351 | 338
RPMI 5 mM glucose + 10% dialyzed FBS | 325 | 345 | 338

NOMO1 [4], HPLM + 10% dialyzed FBS
Conditions | cell viability [%]
0.000781 µM | 112
0.00234 µM | 154
0.00702 µM | 113
0.0211 µM | 131
0.0632 µM | 85.3
0.19 µM | 94.5
0.569 µM | 103
1.71 µM | 61.4
5.12 µM | 71.1
15.4 µM | 18.5
46.1 µM | 3.76

O=C(CCCN1CCC(O)(c2ccc(Cl)cc2)CC1)c1ccc(F)cc1
AUC of viability dose-response curve
Conditions | HPLM + 10% dialyzed FBS | RPMI 5 mM glucose + 10% FBS | RPMI 5 mM glucose + 10% dialyzed FBS
NOMO1 [1] | 467 | 471 | 470
P12-Ichikawa [2] | 459 | 466 | 470

cell viability [%]
Conditions | NOMO1 [4] | P12-Ichikawa [5] | SEM cells [3]
HPLM + 10% dialyzed FBS, 0.000781 µM | 115 | 105 | 86.5
HPLM + 10% dialyzed FBS, 0.00234 µM | 119 | 107 | 93.9
HPLM + 10% dialyzed FBS, 0.00702 µM | 108 | 109 | 75.6
HPLM + 10% dialyzed FBS, 0.0211 µM | 111 | 116 | 106
HPLM + 10% dialyzed FBS, 0.0632 µM | 114 | 119 | 113
HPLM + 10% dialyzed FBS, 0.19 µM | 133 | 123 | 94.8
HPLM + 10% dialyzed FBS, 0.569 µM | 135 | 111 | 25.8
HPLM + 10% dialyzed FBS, 1.71 µM | 129 | 111 | 43.8
HPLM + 10% dialyzed FBS, 5.12 µM | 126 | 119 | 90.2
HPLM + 10% dialyzed FBS, 15.4 µM | 110 | 127 | 102
HPLM + 10% dialyzed FBS, 46.1 µM | 91.7 | 107 | 98.3
RPMI 5 mM glucose + 10% FBS, 0.000781 µM | 95.3 | 106 | 100
RPMI 5 mM glucose + 10% FBS, 0.00234 µM | 106 | 112 | 109
RPMI 5 mM glucose + 10% FBS, 0.00702 µM | 101 | 111 | 82.6
RPMI 5 mM glucose + 10% FBS, 0.0211 µM | 109 | 124 | 101
RPMI 5 mM glucose + 10% FBS, 0.0632 µM | 128 | 124 | 113
RPMI 5 mM glucose + 10% FBS, 0.19 µM | 117 | 132 | 117
RPMI 5 mM glucose + 10% FBS, 0.569 µM | 110 | 116 | 20.9
RPMI 5 mM glucose + 10% FBS, 1.71 µM | 119 | 126 | 47.2
RPMI 5 mM glucose + 10% FBS, 5.12 µM | 102 | 124 | 117
RPMI 5 mM glucose + 10% FBS, 15.4 µM | 110 | 131 | 110
RPMI 5 mM glucose + 10% FBS, 46.1 µM | 82.1 | 95.9 | 89.6
RPMI 5 mM glucose + 10% dialyzed FBS, 0.000781 µM | 115 | 108 | 101
RPMI 5 mM glucose + 10% dialyzed FBS, 0.00234 µM | 121 | 114 | 106
RPMI 5 mM glucose + 10% dialyzed FBS, 0.00702 µM | 114 | 117 | 95.5
RPMI 5 mM glucose + 10% dialyzed FBS, 0.0211 µM | 110 | 111 | 110
RPMI 5 mM glucose + 10% dialyzed FBS, 0.0632 µM | 125 | 116 | 123
RPMI 5 mM glucose + 10% dialyzed FBS, 0.19 µM | 115 | 131 | 120
RPMI 5 mM glucose + 10% dialyzed FBS, 0.569 µM | 120 | 115 | 30.6
RPMI 5 mM glucose + 10% dialyzed FBS, 1.71 µM | 116 | 115 | 43
RPMI 5 mM glucose + 10% dialyzed FBS, 5.12 µM | 122 | 119 | 122
RPMI 5 mM glucose + 10% dialyzed FBS, 15.4 µM | 117 | 112 | 122
RPMI 5 mM glucose + 10% dialyzed FBS, 46.1 µM | 82.5 | 99.8 | 101
